# What was measured:
# tomato = test: Tomato plant height, growth rate and leaf number, greenhouse (Example 5); format: in vivo, Tomato (variety: Rutgers)
# Excerpt: The effect of ABA analog (PBI-429) and trinexapac-ethyl combinations on transpiration and growth inhibition of dicotyledonous (tomato) was also examined in the greenhouse condition. Tomato (variety: Rutgers) seeds were sown in 18-cell flat filled with Promix PGX (available from Premier Horticulture Inc. Quakertown, Pa.) and grown for 3 weeks to allow for germination and initial growth. Plants were then transplanted into pots (18 cm in diameter and 18 cm in height), filled with Promix BX (available from Premier Horticulture Inc. Quakertown, Pa.), and grown for one week before the chemical treatment. Plants received daily irrigation and weekly fertilizer (1 g/L all purpose fertilizer 20-20-20, available from The Scotts Company, Marysville, Ohio). During the chemical treatment, a 24 mL (4 mL/plant) solution was foliar sprayed on the tomato canopy. Leaf transpiration rates were measured using a LI-1600 Steady State Porometer (LI-Cor, Lincoln, Nebr.) at 3, 5, 7, 10, and 14 days after treatment. The leaf transpiration rate was normalized to the percentage of control plant to minimize the experimental errors caused by environmental factors. Plant height was measured at 0, 3, 5, 7, 10 and 14 days after treatment. The growth rate was calculated based on the changes of plant height in certain intervals. The plants were harvested and the leaf number was counted at 14 days after treatment.
# Kentucky bluegrass = test: Greenhouse study on Kentucky bluegrass: turfgrass height, clip weight, turfgrass quality (Example 1); format: in vivo
# Protocol: Greenhouse studies were conducted at the Research Farm of Valent BioSciences Corporation (Long Grove, Ill.). Grasses were grown in pots (18 cm in diameter and 18 cm in height) filled with Promix BX (available from Premier Horticulture Inc. Quakertown, Pa.). Grass was irrigated daily by an overhead irrigation system. The irrigation system was set up with multiple Tornado Mist Spray Heads (10 GPH at 40 PSI-Wetted diameter, NDS/Raindrip, Woodland Hills, Calif.). Spray heads were 1-meter apart from each other and 75 cm above grass canopy. Grass was cut with a scissor at 2.5 cm height and fertilizer (1 g/L all purpose fertilizer 20-20-20, available from The Scotts Company, Marysville, Ohio) was applied once per week.
# (§1) Chemical solutions were prepared with distilled water. Tween 20 (0.05% v/v) was used as the surfactant when necessary. Trinexapac-ethyl (commercial product Primo Maxx, 11.3% active ingredient) was purchased from Syngenta Crop Protection Inc. (Greensboro, N.C.). ABA analogs, 8′ acetylene-ABA, acid (PBI-524), 8′ acetylene-ABA, ester (PBI-429), 8′ cyclopropane ester (PBI-696), or Tetralone, first carbon tail acetylene, ester (PBI-702), were obtained from Plant Biotechnology Institute, National Research Council of Canada (Saskatoon, Saskatchewan, Canada).
# (§2) Chemical solutions were foliar applied to the turfgrass canopy at the rate of 4-gallons/1000 square foot (or 0.163 L/m^−2) immediately after finishing the preparation of solutions. After treatment, turfgrasses were arranged in a randomized complete block experimental design. Turfgrass quality, turfgrass height or clip fresh weight was measured on assigned dates. Turfgrass quality was visually rated on a 0-9 scale based on the color, uniformity, and density of the grass with 0 as the worst and 9 as the best. Turfgrass height was measured as the distance between canopy surface and soil. Clippings were collected form each plot; all plots were cut to a uniform height.
# (§3) All experiments were randomized complete block experimental design. Data were analyzed by analysis of variance. Duncan's new multiple range tests at α=0.05 were used for mean separations.
# Kentucky bluegrass sod was purchased from Deak sod farms, Inc. (Union Grove, Wis.). Grass was grown in the greenhouse for 94 days for establishment. Turfgrass was treated with one time foliar application of 50 ppm PBI-524, PBI-429, PBI-696 or PBI-702 alone or in combination with 250 ppm trinexapac-ethyl. The turfgrass was cut every 7 days. Turfgrass quality, turfgrass height, and clip weight were measured on days 7 and 35 after treatment.
# creeping bentgrass = test: Golf course green field study on creeping bentgrass with PBI-429: turfgrass height, soil moisture, turf quality (Example 2); format: in vivo, Penncross creeping bentgrass; details: for Soil moisture / Turfgrass height / Turf quality: 50 ppm PBI-429 alone; for Soil moisture (in words) / Turfgrass height (in words): trinexapac-ethyl 25 ppm, PBI-429 50 ppm, alone or combined; for Turf quality: visual 0-9 scale, 9 best
# Protocol: Field studies were conducted at the nursery green or the practice green at Countryside golf course (Mundelein, Ill.). Both greens were sand based and growing Penncross creeping bentgrass. Grass was managed with typical Illinois golf course management practices.
# as §1, §2, §3
# Trinexapac-ethyl (25 ppm) or PBI-429 (50 ppm) were one time foliar applied alone or in combination to creeping bentgrass in the golf course green to investigate their effect on turfgrass quality, growth inhibition and soil moisture.
# [1] = 25 ppm PBI-429, 3 days after treatment
# [2] = 25 ppm PBI-429, 5 days after treatment
# [3] = 25 ppm PBI-429, 7 days after treatment
# [4] = 25 ppm PBI-429, 10 days after treatment
# [5] = 25 ppm PBI-429, 14 days after treatment
# [6] = 50 ppm PBI-429, 3 days after treatment
# [7] = 50 ppm PBI-429, 5 days after treatment
# [8] = 50 ppm PBI-429, 7 days after treatment
# [9] = 50 ppm PBI-429, 10 days after treatment
# [10] = 50 ppm PBI-429, 14 days after treatment
# [11] = 100 ppm PBI-429, 3 days after treatment
# [12] = 100 ppm PBI-429, 5 days after treatment
# [13] = 100 ppm PBI-429, 7 days after treatment
# [14] = 100 ppm PBI-429, 10 days after treatment
# [15] = 100 ppm PBI-429, 14 days after treatment
# [16] = 200 ppm PBI-429, 3 days after treatment
# [17] = 200 ppm PBI-429, 5 days after treatment
# [18] = 200 ppm PBI-429, 7 days after treatment
# [19] = 200 ppm PBI-429, 10 days after treatment
# [20] = 200 ppm PBI-429, 14 days after treatment
# [21] = PBI-429 25-200 ppm, trinexapac-ethyl 250-2000 ppm, alone or combined
# [22] = 7 days after treatment, 50 ppm ABA analog alone
# [23] = 35 days after treatment, 50 ppm ABA analog alone
smiles,measurement,setting,value
"C#CC1(C)CC(=O)C=C(C)C1(O)/C=C/C(C)=C\C(=O)OC (stereo not shown) [PBI-429, 8′ acetylene-ABA, ester]",Plant height,"tomato; 25 ppm PBI-429, 0 days after treatment",6.3 cm
same,Growth rate,tomato; [1],0.8 cm/day
same,Plant height,tomato; [1],8.6 cm
same,Growth rate,tomato; [2],0.9 cm/day
same,Plant height,tomato; [2],10.4 cm
same,Growth rate,tomato; [3],1.2 cm/day
same,Plant height,tomato; [3],12.8 cm
same,Growth rate,tomato; [4],1.1 cm/day
same,Plant height,tomato; [4],16.0 cm
same,Growth rate,tomato; [5],1.2 cm/day
same,Leaf number,tomato; [5],11.0
same,Plant height,tomato; [5],20.7 cm
same,Plant height,"tomato; 50 ppm PBI-429, 0 days after treatment",6.3 cm
same,Growth rate,tomato; [6],0.6 cm/day
same,Plant height,tomato; [6],8.8 cm
same,Growth rate,tomato; [7],0.6 cm/day
same,Plant height,tomato; [7],10.0 cm
same,Growth rate,tomato; [8],0.8 cm/day
same,Plant height,tomato; [8],11.6 cm
same,Growth rate,tomato; [9],0.8 cm/day
same,Plant height,tomato; [9],13.9 cm
same,Growth rate,tomato; [10],1.1 cm/day
same,Leaf number,tomato; [10],11.0
same,Plant height,tomato; [10],18.2 cm
same,Plant height,"tomato; 100 ppm PBI-429, 0 days after treatment",6.3 cm
same,Growth rate,tomato; [11],0.6 cm/day
same,Plant height,tomato; [11],8.4 cm
same,Growth rate,tomato; [12],0.5 cm/day
same,Plant height,tomato; [12],9.4 cm
same,Growth rate,tomato; [13],0.7 cm/day
same,Plant height,tomato; [13],10.8 cm
same,Growth rate,tomato; [14],0.7 cm/day
same,Plant height,tomato; [14],12.8 cm
same,Growth rate,tomato; [15],0.9 cm/day
same,Leaf number,tomato; [15],10.8
same,Plant height,tomato; [15],16.2 cm
same,Plant height,"tomato; 200 ppm PBI-429, 0 days after treatment",6.4 cm
same,Growth rate,tomato; [16],0.5 cm/day
same,Plant height,tomato; [16],7.9 cm
same,Growth rate,tomato; [17],0.4 cm/day
same,Plant height,tomato; [17],8.7 cm
same,Growth rate,tomato; [18],0.5 cm/day
same,Plant height,tomato; [18],9.6 cm
same,Growth rate,tomato; [19],0.4 cm/day
same,Plant height,tomato; [19],10.9 cm
same,Growth rate,tomato; [20],0.7 cm/day
same,Leaf number,tomato; [20],10.5
same,Plant height,tomato; [20],13.8 cm
same,Tomato leaf number (in words),"tomato; 14 days after treatment, PBI-429 25-200 ppm, trinexapac-ethyl 250-2000 ppm, alone or combined",only significantly reduced leaf number at the highest rate
same,Tomato growth rate in terms of plant height (in words),tomato; [21],decreased tomato growth rate
same,Tomato plant height (in words),tomato; [21],decreased tomato plant height
same,Clip Weight,Kentucky bluegrass; [22],0.4 g
same,Turfgrass height,Kentucky bluegrass; [22],5.8 cm
same,Turfgrass quality,"Kentucky bluegrass; 7 days after treatment, 50 ppm ABA analog alone, visual 0-9 scale, 9 best",6.6
same,Turfgrass height and clip weight compared to the control (in words),"Kentucky bluegrass; 7 days after treatment, trinexapac-ethyl 250 ppm, PBI-524 or PBI-429 50 ppm, alone or combined",reduced turfgrass height and clip weight compared to the control
same,Clip Weight,Kentucky bluegrass; [23],2.3 g
same,Turfgrass height,Kentucky bluegrass; [23],8.1 cm
same,Turfgrass height and clip weight (in words),Kentucky bluegrass; [23],no longer reduced turfgrass height and clip weight
same,Soil moisture,creeping bentgrass; 4 days after treatment,13.3%
same,Turfgrass height,creeping bentgrass; 4 days after treatment,6.7 mm
same,Soil moisture (in words),creeping bentgrass; 4 days after treatment,increase soil moisture
same,Turfgrass height (in words),creeping bentgrass; 4 days after treatment,reduced turfgrass height more than the combination of trinexapac-ethyl and PBI-429
same,Soil moisture,creeping bentgrass; 7 days after treatment,13.1%
same,Turfgrass height,creeping bentgrass; 7 days after treatment,6.3 mm
same,Turf quality,creeping bentgrass; 7 days after treatment,7.1
same,Soil moisture (in words),creeping bentgrass; 7 days after treatment,increase soil moisture
same,Turfgrass height (in words),creeping bentgrass; 7 days after treatment,reduced turfgrass height similarly
same,Soil moisture,creeping bentgrass; 38 days after treatment,12.9%
same,Turfgrass height,creeping bentgrass; 38 days after treatment,5.5 mm
same,Turf quality,creeping bentgrass; 38 days after treatment,8.0

# — patent US20080254993A1, “Use of abscisic acid analogs to enhance growth control” (priority 2007, published 2008)
